Assay results published in US8178579B2, “Dioxanes and uses thereof” (President and Fellows of Harvard College, priority 2001, dated 2012).

What was measured:
HDAC6F H216A mutant [1] = target: T1, HDAC6F H216A mutant (Homo sapiens, UniProt Q9UBN7, H216A); assay: in vitro tubulin deacetylase (TDAC) assay, HDAC6F H216A mutant; assay type: biochemical; settings: acetylated tubulin as substrate
T1 construct: made in house; host or cells: TAg Jurkat cells, transient transfection, anti-FLAG M2 immunoprecipitation
T1 sequence (Q9UBN7 1-1215 H216A): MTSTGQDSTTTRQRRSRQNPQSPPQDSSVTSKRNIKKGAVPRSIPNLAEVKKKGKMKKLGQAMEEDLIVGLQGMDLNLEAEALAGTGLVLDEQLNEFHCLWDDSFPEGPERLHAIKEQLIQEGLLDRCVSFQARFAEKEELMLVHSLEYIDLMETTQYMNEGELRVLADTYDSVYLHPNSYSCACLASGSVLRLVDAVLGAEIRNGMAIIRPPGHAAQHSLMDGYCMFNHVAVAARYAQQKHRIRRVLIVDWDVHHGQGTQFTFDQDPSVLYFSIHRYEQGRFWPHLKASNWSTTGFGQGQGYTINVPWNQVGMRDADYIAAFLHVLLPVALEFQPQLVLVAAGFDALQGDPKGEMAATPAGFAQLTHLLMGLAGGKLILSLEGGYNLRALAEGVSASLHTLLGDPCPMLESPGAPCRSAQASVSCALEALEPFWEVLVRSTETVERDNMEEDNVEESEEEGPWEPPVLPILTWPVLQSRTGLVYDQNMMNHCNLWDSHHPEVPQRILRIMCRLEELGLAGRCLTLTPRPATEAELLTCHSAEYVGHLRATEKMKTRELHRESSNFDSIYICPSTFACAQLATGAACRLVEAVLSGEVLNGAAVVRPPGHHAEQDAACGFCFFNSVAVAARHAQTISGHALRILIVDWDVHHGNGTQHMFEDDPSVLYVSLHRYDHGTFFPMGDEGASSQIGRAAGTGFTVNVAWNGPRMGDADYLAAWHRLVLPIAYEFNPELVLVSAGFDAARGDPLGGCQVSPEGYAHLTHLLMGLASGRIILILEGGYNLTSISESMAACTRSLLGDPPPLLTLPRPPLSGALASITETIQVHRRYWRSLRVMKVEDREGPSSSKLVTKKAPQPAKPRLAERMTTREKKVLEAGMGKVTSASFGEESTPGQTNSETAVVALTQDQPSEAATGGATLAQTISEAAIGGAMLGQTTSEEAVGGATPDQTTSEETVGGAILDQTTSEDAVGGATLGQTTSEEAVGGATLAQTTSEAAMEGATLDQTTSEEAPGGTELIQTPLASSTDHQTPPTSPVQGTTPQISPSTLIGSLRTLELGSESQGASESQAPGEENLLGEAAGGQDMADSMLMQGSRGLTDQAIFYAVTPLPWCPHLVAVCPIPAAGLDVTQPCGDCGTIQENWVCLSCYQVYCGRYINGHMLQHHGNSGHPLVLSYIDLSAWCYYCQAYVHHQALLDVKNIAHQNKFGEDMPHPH
Method: (§1) FLAG-tagged HDAC pBJ5 constructs were transiently transfected by electroporation with 5 μg DNA for expression of recombinant proteins (C. M. Grozinger, C. A. Hassig and S. L. Schreiber, Proc. Natl. Acad. Sci. USA, 27, 4868 (1999); and C. A. Hassig et al., Proc. Natl. Acad. Sci. USA 95, 3519 (1998)]. Cells were mock transfected without DNA or with a non-FLAG-tagged pCMV-LacZ construct as a negative control. Forty-eight hours after transfection recombinant proteins were immunoprecipitated using anti-FLAG M2 agarose affinity gel beads as described [C. A. Hassig et al., Proc. Natl. Acad. Sci. USA 95, 3519 (1998)]. Western blotting using anti-acetylated α-tubulin (1:1000) anti-tubulin (1:1000), and anti-acetylated (K9, K14) histone H3 (1:1000) antibodies was performed using standard methods (K. M. Koeller et al., Chemistry & Biology, 10 (5) (2003) pp. 397-410). […]
(§2) [^3H]Acetate-incorporated histones were isolated from butyrate-treated HeLa cells as described [J. Taunton, C. […] Immunoprecipitates were incubated with acetylated histones and HDAC activity determined by scintillation counting as described [J. Taunton, C. […] After centrifugation, the supernatant (diluted to 0.4 μg tubulin) and α-FLAG M2 agarose affinity gel beads were analyzed by western blotting with an anti-FLAG M2 antibody (1:1750) to ensure equal protein levels.

HDAC6F H216A mutant [2] = target: T1, HDAC6F H216A mutant; assay: in vitro deacetylase assay with [3H]-histones, HDAC6F H216A mutant; assay type: biochemical; settings: [3H]-labeled histones, n=3
Method: as §1, §2

Row | Structure (SMILES) | inhibition of TDAC activity of HDAC6F H216A mutant (HDAC6F H216A mutant [1]) | inhibition of HDAC activity of HDAC6F H216A mutant (HDAC6F H216A mutant [2])
1 | O=C(CCCCCCC(=O)Nc1ccc([C@@H]2OC(c3ccc(CO)cc3)C[C@H](CSc3nc(-c4ccccc4)c(-c4ccccc4)o3)O2)cc1)NO (stereo partly shown) [tubacin] | exhibited TDAC activity that was inhibited by tubacin and TSA | only partial inhibited by TSA or tubacin
2 | CC(/C=C/C(=O)NO)=C\[C@@H](C)C(=O)c1ccc(N(C)C)cc1 [TSA, trichostatin A, reference compound] | exhibited TDAC activity that was inhibited by tubacin and TSA | only partial inhibited by TSA or tubacin
